Where two headings read alike, the source gives them in different places.
Columns and labels:
Siha cells [1] = assay: Cell wound healing assay (migration), Siha cells; type: cell-based, human; conditions: 50 μM, 24 hours, compared to control
Method: (§1) Straight lines 0.5 cm apart from each other were marked on the bottoms of culture dishes opposite the label lines. Logarithmic phase cells were seeded into 35 mm culture dishes. Nicks were made 0.5 cm apart on the bottom of the dish along the labeled lines with a 200 μl sterile pipette tip after cells were close to saturated. Dishes were then washed with sterile PBS three times, 2% FBS medium containing 0 or 50 μM of No. 16 inhibitor was added, and dishes were incubated for 24 hours. The scratch width was photographed under phase contrast on an inverted microscope with a digital camera (100× magnification). The experiment was repeated three times.

h-TERT = h-TERT expression in HeLa and Siha cells (western blot and PCR); type: cell-based, human; conditions: both HeLa and Siha cells, 50 μM, 48 hours
Method: (§2) Cells were washed with precooled PBS after being treated with inhibitor for 48 hours, and cell lysis solution was added to extract protein. The sample concentration was measured by the bicinchoninic acid method. 30 μg of protein was separated by 10% polyacrylamide gel electrophoresis (PAGE) and transferred to polyvinylidene difluoride membranes. After blocking in non-fat milk solution at room temperature, the membranes were incubated with diluted primary antibodies against either proteins of interest or β-actin overnight at 4°C. After consecutive washes, the membranes were incubated with secondary antibody (diluted 1:5000) at room temperature for 1 h. Then, the membranes were developed with enhanced chemiluminescence and imaged with ImageQuant LAS4000 (GE Healthcare Life Sciences, Pittsburgh, PA). The grey values of protein bands were analyzed using Image J (National Institutes of Health, USA). The relative levels of proteins of interest were calculated in comparison to the internal reference β-actin. The experiment was repeated three times.
(§3) Levels of HPA, p53, c-Myc, and hTERT mRNA were analyzed by real-time PCR. mRNA was extracted from cells and separated and purified with Trizol. The total RNA concentration was measured with an ultraviolet spectrophotometer. The quality of total RNA was assessed using 1.5% agarose gel electrophoresis. […]

p53 = p53 expression in HeLa and Siha cells (western blot and PCR); type: cell-based, human; conditions: both HeLa and Siha cells, 50 μM, 48 hours
Method: as §2, §3

HPA = HPA expression in HeLa and Siha cells (immunocytochemical staining, western blot, real time PCR); type: cell-based, human; conditions: 50 μM, 24 hours, stronger after 48 hours
Description: The experiment was repeated three times.
The experiment was repeated twice.

[2] = tested on: HaCaT human normal keratinocytes; assay: MTT assay, growth inhibition of HaCaT cells; type: cell-based; conditions: time not given
Method: (§4) Cells were cultured in improved medium supplemented with 10% FBS and kept at 37°C in a […] humidified atmosphere containing 5% CO2. Logarithmic phase cells were used for the experiment and were treated with different concentrations of different medications for different amounts of time. […] Inhibitors were made into 10 mM stock solutions with DMSO, filtered, and kept at room temperature away from light. These inhibitor stock solutions were diluted to the required concentration (1, 5, 15, 30, 60, 120, 180, or 240 μM) before every experiment. The final doses of nedaplatin were […]. In order to determine whether an HPA inhibitor sensitized cells to nedaplatin, 10 μM of inhibitor number 16 (No. 16) was added into each experimental well with nedaplatin.
(§5) 200 μl of single-cell suspension at a density of 5 × 10^4 cells/ml was seeded into 96-well plates. […] OD values were measured at the wavelength of 492 nm with a reference wavelength of 630 nm. Inhibition rate (IR) in the cells was calculated as follows: IR = ((OD2-OD0)-(OD1-OD0))/(OD2-OD0) × 100%, where OD0 was the OD value of blank wells, OD2 was the value of normal control wells, and OD1 was the value of experimental wells. […]

c-Myc = c-Myc expression in HeLa and Siha cells (western blot and PCR); type: cell-based, human; conditions: both HeLa and Siha cells, 50 μM, 48 hours
Method: as §2, §3

HaCaT cells = assay: Cell wound healing assay (migration), HaCaT cells; type: cell-based, human; conditions: 50 μM, 24 hours, compared to control
Method: as §1

HeLa cells [3] = assay: Cell wound healing assay (migration), HeLa cells; type: cell-based, human; conditions: 50 μM, 24 hours, compared to control
Method: as §1

Siha cells [4] = assay: MTT assay, growth inhibition of Siha cells; type: cell-based, human
Method: as §4, §5

HeLa cells [5] = assay: MTT assay, growth inhibition of HeLa cells; type: cell-based, human; conditions: for IC50 / inhibition at 1 µM / inhibition at 5 µM / inhibition at 15 µM / inhibition at 30 µM / inhibition at 60 µM / inhibition at 120 µM / inhibition at 180 µM / inhibition at 240 µM: Homo sapiens, HeLa; for inhibition at 1 µM / inhibition at 5 µM / inhibition at 15 µM / inhibition at 30 µM / inhibition at 60 µM / inhibition at 120 µM / inhibition at 180 µM / inhibition at 240 µM: read-out: Growth inhibition rate in HeLa cells
Method: as §4
200 μl of single-cell suspension at a density of 5 × 10^4 cells/ml was seeded into 96-well plates. When cells were adherent, the medium was replaced with 200 μl of medium containing different concentrations of inhibitor or nedaplatin, and the cells were further incubated for 24 hours to 96 hours respectively. 20 μl MTT solution ([…] in phosphate buffered saline (PBS)) was added to each well 4 hours before the treatment ended. The cells were then incubated for another 4 hours, after which the supernatants were removed. The cells were totally solubilized in 150 μl DMSO. OD values were measured at the wavelength of 492 nm with a reference wavelength of 630 nm. Inhibition rate (IR) in the cells was calculated as follows: IR = ((OD2-OD0)-(OD1-OD0))/(OD2-OD0) × 100%, where OD0 was the OD value of blank wells, OD2 was the value of normal control wells, and OD1 was the value of experimental wells. Each condition was replicated in six separate wells.

human recombinant HPA = molecular target: T1, human recombinant HPA (Homo sapiens, UniProt Q9Y251); assay: Detection of HPA activity inhibition (Heparan Degrading Enzyme Assay Kit); type: biochemical; conditions: 31 mIU human recombinant HPA, 37°C, 45 minutes; read-out: IC50, inhibitory effect on heparanase activity
T1 sequence (Q9Y251 158-543 limits assumed): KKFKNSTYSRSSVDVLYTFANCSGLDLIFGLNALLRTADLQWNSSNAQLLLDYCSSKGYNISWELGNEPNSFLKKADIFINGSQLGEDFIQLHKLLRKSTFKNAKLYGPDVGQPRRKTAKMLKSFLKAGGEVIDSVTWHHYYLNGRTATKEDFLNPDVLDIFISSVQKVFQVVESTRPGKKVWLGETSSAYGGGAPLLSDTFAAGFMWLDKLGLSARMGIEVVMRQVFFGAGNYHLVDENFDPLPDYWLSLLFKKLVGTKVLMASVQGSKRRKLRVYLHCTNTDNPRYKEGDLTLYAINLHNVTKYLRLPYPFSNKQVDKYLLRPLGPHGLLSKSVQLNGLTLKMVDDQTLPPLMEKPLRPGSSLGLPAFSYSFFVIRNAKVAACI
T1 sequence (Q9Y251 36-109 limits assumed): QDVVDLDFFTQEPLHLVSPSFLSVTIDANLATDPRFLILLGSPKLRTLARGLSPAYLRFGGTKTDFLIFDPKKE
Method: The final reaction volume of each vial was 100 μl. […] Then, 100 μl of terminating liquid was added into each well. OD values were examined at a wavelength of 450 nm. Each concentration was tested in three separate wells. GraphPad Prism 5 (GraphPad Prism Software Inc., San Diego) was used to calculate the inhibitory IC50 values.

[6] = 48 hours, MTT, read-out: IC50, growth inhibition of HeLa cells

| melting point | IC50 (HeLa cells [5]; [6]) | IC50 (human recombinant HPA) | SMILES | inhibition at 1 µM (HeLa cells [5]; 1 μM, 48 hs, mean ± s) | inhibition at 5 µM (HeLa cells [5]; 5 μM, 48 hs, mean ± s) | inhibition at 15 µM (HeLa cells [5]; 15 μM, 48 hs, mean ± s) | inhibition at 30 µM (HeLa cells [5]; 30 μM, 48 hs, mean ± s) | inhibition at 60 µM (HeLa cells [5]; 60 μM, 48 hs, mean ± s) | inhibition at 120 µM (HeLa cells [5]; 120 μM, 48 hs, mean ± s) | inhibition at 180 µM (HeLa cells [5]; 180 μM, 48 hs, mean ± s) | inhibition at 240 µM (HeLa cells [5]; 240 μM, 48 hs, mean ± s) | other results |
| --- | --- | --- | --- | --- | --- | --- | --- | --- | --- | --- | --- | --- |
| 128.7 to 129.6 °C | 75.2 µM |  | COc1ccc(C2CNC(c3ccc(F)cc3F)OC23CCCCC3)cc1 (stereo not drawn) [No. 22] | -3.13 ± 0.705% | -0.339 ± 0.0726% | 4.27 ± 0.729% | 22.1 ± 0.976% | 36.13 ± 0.285% | 66 ± 0.898% | 93.9 ± 1.67% | 95.18 ± 0.39% |  |
| 127.7 to 128.5 °C | 70.2 µM |  | Clc1ccc(C2NCC(c3ccccc3)C3(CCCCC3)O2)cc1 (stereo not drawn) [No. 11] | 1.22 ± 0.0789% | 2.65 ± 0.0739% | 5.26 ± 0.294% | 13.6 ± 1.22% | 41.8 ± 1.19% | 71.4 ± 1.15% | 97.18 ± 0.525% | 98.02 ± 0.465% |  |
| 131.7 to 132.6 °C |  |  | COc1ccc(C2CNC(c3c(F)cccc3F)OC23CCCCC3)cc1 (stereo not drawn) |  |  |  |  |  |  |  |  |  |
| 130.4 to 131.2 °C | 64.2 µM | 4.47 µM | Fc1cccc(F)c1C1NCC(c2ccccc2)C2(CCCCC2)O1 (stereo not drawn) [No. 14] | 2.92 ± 0.155% | 4.05 ± 0.888% | 9.57 ± 0.761% | 17.9 ± 1.2% | 46.4 ± 1.22% | 78.58 ± 0.502% | 96.98 ± 0.86% | 98.96 ± 0.517% |  |
|  | 96.6 µM |  | Fc1ccc(C2NCC(c3ccccc3)C3(CCCCC3)O2)cc1 (stereo not drawn) [No. 12] | -5.15 ± 0.0626% | -1.54 ± 0.472% | 5.39 ± 0.33% | 8.76 ± 1.21% | 31.7 ± 1.21% | 55.5 ± 0.671% | 89.01 ± 0.491% | 90.89 ± 0.416% |  |
| 105.4 to 106.7 °C | 77.6 µM | 14.1 µM | COc1ccc(C2CNC(c3ccc(C)cc3)OC23CCCCC3)cc1 (stereo not drawn) [No. 20] | 5.01 ± 0.247% | 5.02 ± 0.0834% | 13.3 ± 0.32% | 19.4 ± 1.34% | 38.49 ± 0.255% | 66.3 ± 1.14% | 90.5 ± 1.12% | 95.44 ± 0.525% |  |
| 111.3 to 112.5 °C | 80 µM | 28.8 µM | COc1ccc(C2CNC(c3ccc([N+](=O)[O-])cc3)OC23CCCCC3)cc1 (stereo not drawn) [No. 15] | 9.12 ± 0.166% | 17 ± 0.732% | 25.2 ± 0.947% | 33.2 ± 2.34% | 36.2 ± 0.592% | 77.5 ± 3.82% | 92.4 ± 3.08% | 95.2 ± 3.11% |  |
|  |  |  | [NH2][Pt]1([NH2])[O]CC(=O)[O]1 [nedaplatin] |  |  |  |  |  |  |  |  | IC50, growth inhibition of Siha cells by nedaplatin alone (Siha cells [4]; 48 hours, nedaplatin alone): 11.204 µg/mL; IC50, growth inhibition of HeLa cells by nedaplatin alone (HeLa cells [5]; 48 hours, nedaplatin alone, listed as NDP): 2.878 µg/mL |

| SMILES | melting point | IC50 (HeLa cells [5]; [6]) | IC50 (human recombinant HPA) | inhibition at 1 µM (HeLa cells [5]; 1 μM, 48 hs, mean ± s) | inhibition at 5 µM (HeLa cells [5]; 5 μM, 48 hs, mean ± s) | inhibition at 15 µM (HeLa cells [5]; 15 μM, 48 hs, mean ± s) | inhibition at 30 µM (HeLa cells [5]; 30 μM, 48 hs, mean ± s) | inhibition at 60 µM (HeLa cells [5]; 60 μM, 48 hs, mean ± s) | inhibition at 120 µM (HeLa cells [5]; 120 μM, 48 hs, mean ± s) | inhibition at 180 µM (HeLa cells [5]; 180 μM, 48 hs, mean ± s) | inhibition at 240 µM (HeLa cells [5]; 240 μM, 48 hs, mean ± s) | other results |
| --- | --- | --- | --- | --- | --- | --- | --- | --- | --- | --- | --- | --- |
| COc1ccc(C2CNC(c3ccccc3F)OC23CCCCC3)cc1 (stereo not drawn) [No. 16] | 171.3 to 172.5 °C |  |  |  |  |  |  |  |  |  |  | Effect on cell migration (scratch width) (Siha cells [1]): inhibited the migration; Effect on h-TERT expression (h-TERT): decreased; Effect on p53 expression (p53): increased; Effect on HPA levels (HPA): reduced HPA levels; IC50 [2]: 1710 µM; Effect on c-Myc expression (c-Myc): decreased; Effect on cell migration (scratch width) (HaCaT cells): minimal; Effect on cell migration (scratch width) (HeLa cells [3]): inhibited the migration; IC50 (Siha cells [4]; Homo sapiens, SiHa, read-out: IC50, growth inhibition of Siha cells): 78.8 µM; IC50 (HeLa cells [5]; 48 h, read-out: IC50, growth inhibition of HeLa cells, 48 hours, MTT): 48.2 µM; inhibition at 1 µM (HeLa cells [5]): 7.41 ± 0.976%; inhibition at 5 µM (HeLa cells [5]): 11 ± 0.467%; inhibition at 15 µM (HeLa cells [5]): 20.2 ± 0.779%; inhibition at 30 µM (HeLa cells [5]): 36.5 ± 0.471%; inhibition at 60 µM (HeLa cells [5]): 59.3 ± 1.1%; inhibition at 120 µM (HeLa cells [5]): 87.6 ± 0.891%; inhibition at 180 µM (HeLa cells [5]): 92.89 ± 0.537%; inhibition at 240 µM (HeLa cells [5]): 92.98 ± 0.237% |
